Key:
SK-MEL-2 = assay: NCI cytotoxicity screen, Melanoma panel; format: cell-based; details: Homo sapiens, single dose 10 µM, negative = lethal, read-out: Percent growth inhibition
Procedure: (§1) Cytotoxicity was performed at National Cancer Institute (NCI), Bethesda, USA as per their protocols.

SK-MEL-5 = assay: NCI cytotoxicity screen, Melanoma panel; format: cell-based; details: Homo sapiens, single dose 10 µM, negative = lethal, read-out: Percent growth inhibition
Procedure: as §1

UACC-257 = assay: NCI cytotoxicity screen, Melanoma panel; format: cell-based; details: Homo sapiens, single dose 10 µM, negative = lethal, read-out: Percent growth inhibition
Procedure: as §1

MDA-MB-435 = assay: NCI cytotoxicity screen, Melanoma panel; format: cell-based; details: Homo sapiens, MDA-MB-435, read-out: Percent growth inhibition
Procedure: as §1

SK-MEL-28 = assay: NCI cytotoxicity screen, Melanoma panel; format: cell-based; details: Homo sapiens, single dose 10 µM, negative = lethal, read-out: Percent growth inhibition
Procedure: as §1

MALME-3M = assay: NCI cytotoxicity screen, Melanoma panel; format: cell-based; details: Homo sapiens; MALME-3M; single dose 10 µM; negative = lethal; read-out: Percent growth inhibition
Procedure: as §1

K-562 = assay: NCI cytotoxicity screen, Leukemia panel; format: cell-based; details: Homo sapiens, K562; K-562; single dose 10 µM; negative = lethal; read-out: Percent growth inhibition
Procedure: as §1

HL-60(TB) = assay: NCI cytotoxicity screen, Leukemia panel; format: cell-based; details: Homo sapiens, HL-60, HL-60(TB); single dose 10 µM; negative = lethal; read-out: Percent growth inhibition
Procedure: as §1

MOLT-4 = assay: NCI cytotoxicity screen, Leukemia panel; format: cell-based; details: Homo sapiens, MOLT-4, MOLT-4; single dose 10 µM; negative = lethal; read-out: Percent growth inhibition
Procedure: as §1

CCRF-CEM = assay: NCI cytotoxicity screen, Leukemia panel; format: cell-based; details: Homo sapiens, single dose 10 µM, negative = lethal, read-out: Percent growth inhibition
Procedure: as §1

RPMI-8226 = assay: NCI cytotoxicity screen, Leukemia panel; format: cell-based; details: Homo sapiens; RPMI-8226; single dose 10 µM; negative = lethal; read-out: Percent growth inhibition
Procedure: as §1

SR = assay: NCI cytotoxicity screen, Leukemia panel; format: cell-based; details: Homo sapiens, single dose 10 µM, negative = lethal, read-out: Percent growth inhibition
Procedure: as §1

HCT-116 = assay: NCI cytotoxicity screen, Colon Cancer panel; format: cell-based; details: Homo sapiens, single dose 10 µM, negative = lethal, read-out: Percent growth inhibition
Procedure: as §1

HT29 = assay: NCI cytotoxicity screen, Colon Cancer panel; format: cell-based; details: Homo sapiens, HT-29; HT29; single dose 10 µM; negative = lethal; read-out: Percent growth inhibition
Procedure: as §1

HCT-15 = assay: NCI cytotoxicity screen, Colon Cancer panel; format: cell-based; details: Homo sapiens, single dose 10 µM, negative = lethal, read-out: Percent growth inhibition
Procedure: as §1

COLO 205 = assay: NCI cytotoxicity screen, Colon Cancer panel; format: cell-based; details: Homo sapiens, single dose 10 µM, negative = lethal, read-out: Percent growth inhibition
Procedure: as §1

OVCAR-3 = assay: NCI cytotoxicity screen, Ovarian Cancer panel; format: cell-based, human; details: Homo sapiens; OVCAR-3; single dose 10 µM; negative = lethal; read-out: Percent growth inhibition
Procedure: as §1

ACHN = assay: NCI cytotoxicity screen, Renal Cancer panel; format: cell-based; details: Homo sapiens, single dose 10 µM, negative = lethal, read-out: Percent growth inhibition
Procedure: as §1

SN12C = assay: NCI cytotoxicity screen, Renal Cancer panel; format: cell-based; details: Homo sapiens, single dose 10 µM, negative = lethal, read-out: Percent growth inhibition
Procedure: as §1

CAKI-1 = assay: NCI cytotoxicity screen, Renal Cancer panel; format: cell-based; details: Homo sapiens; CAKI-1; single dose 10 µM; negative = lethal; read-out: Percent growth inhibition
Procedure: as §1

RXF 393 = assay: NCI cytotoxicity screen, Renal Cancer panel; format: cell-based; details: Homo sapiens, single dose 10 µM, negative = lethal, read-out: Percent growth inhibition
Procedure: as §1

UO-31 = assay: NCI cytotoxicity screen, Renal Cancer panel; format: cell-based; details: Homo sapiens, single dose 10 µM, negative = lethal, read-out: Percent growth inhibition
Procedure: as §1

NCI-H226 = assay: NCI cytotoxicity screen, Non-Small Cell Lung Cancer panel; format: cell-based, human; details: Homo sapiens, single dose 10 µM, negative = lethal, read-out: Percent growth inhibition
Procedure: as §1

NCI-H322M = assay: as above; format: cell-based, human; details: Homo sapiens, single dose 10 µM, negative = lethal, read-out: Percent growth inhibition
Procedure: as §1

NCI-522 = assay: as above; format: cell-based, human; details: Homo sapiens; NCI-522; single dose 10 µM; negative = lethal; read-out: Percent growth inhibition
Procedure: as §1

NCI-H23 = assay: as above; format: cell-based, human; details: Homo sapiens, single dose 10 µM, negative = lethal, read-out: Percent growth inhibition
Procedure: as §1

[1] = Experimental log P, shake-flask method; format: physicochemical; details: n-octanol/phosphate buffer pH 7.4, read-out: Exp. Log P
Procedure: Partition coefficients or experimental log P values of all synthesized compounds (9–23, 30 and 31) were calculated using the shake-flask method. Log P values were determined using n-octanol and phosphate buffer (pH = 7.4) at 10:1 ratio of volumes. Stock solutions (10^−3 M) of compounds were prepared in DMSO. Glass vials were used to make final solutions i.e. stock solution (250 µL) and phosphate buffer (125 µL). To record the absorbance, wavelength was selected based on λmax of the respective compound. Initial absorbance (Ai) for every compound was noted consuming the stock solution in the buffer phase. Now added n-octanol to every vial and shaken well using a mechanical shaker for 50 minutes. To get separation of both phases, glass vials were centrifuged for 35 min. at 2500 rpm. Then, the layer of octanol was separated from glass vial. The final absorbance (Af) of each compound was recorded by using the buffer layer. The values of P for compounds were determined by the following equation (Eq. 8):8 P=Ai−Af/Af×Vw/Vo

SNB-19 = assay: NCI cytotoxicity screen, CNS Cancer panel; format: cell-based; details: Homo sapiens; SNB-19; single dose 10 µM; negative = lethal; read-out: Percent growth inhibition
Procedure: as §1

U251 = assay: NCI cytotoxicity screen, CNS Cancer panel; format: cell-based; details: Homo sapiens, U-251; U251; single dose 10 µM; negative = lethal; read-out: Percent growth inhibition
Procedure: as §1

SF-539 = assay: NCI cytotoxicity screen, CNS Cancer panel; format: cell-based; details: Homo sapiens, single dose 10 µM, negative = lethal, read-out: Percent growth inhibition
Procedure: as §1

SNB-75 = assay: NCI cytotoxicity screen, CNS Cancer panel; format: cell-based; details: Homo sapiens, single dose 10 µM, negative = lethal, read-out: Percent growth inhibition
Procedure: as §1

SF-268 = assay: NCI cytotoxicity screen, CNS Cancer panel; format: cell-based; details: Homo sapiens, single dose 10 µM, negative = lethal, read-out: Percent growth inhibition
Procedure: as §1

SF-295 = assay: NCI cytotoxicity screen, CNS Cancer panel; format: cell-based; details: Homo sapiens, single dose 10 µM, negative = lethal, read-out: Percent growth inhibition
Procedure: as §1

DU-145 = assay: NCI cytotoxicity screen, Prostate Cancer panel; format: cell-based, human; details: Homo sapiens, single dose 10 µM, negative = lethal, read-out: Percent growth inhibition
Procedure: as §1

PC-3 = assay: NCI cytotoxicity screen, Prostate Cancer panel; format: cell-based, human; details: Homo sapiens, single dose 10 µM, negative = lethal, read-out: Percent growth inhibition
Procedure: as §1

EXVX = assay: NCI cytotoxicity screen, Non-Small Cell Lung Cancer panel; format: cell-based; details: Homo sapiens; EXVX; single dose 10 µM; negative = lethal; read-out: Percent growth inhibition
Procedure: as §1

HOP-92 = assay: as above; format: cell-based; details: Homo sapiens, single dose 10 µM, negative = lethal, read-out: Percent growth inhibition
Procedure: as §1

NCI-H460 = assay: as above; format: cell-based; details: Homo sapiens, single dose 10 µM, negative = lethal, read-out: Percent growth inhibition
Procedure: as §1

HOP-62 = assay: as above; format: cell-based; details: Homo sapiens, single dose 10 µM, negative = lethal, read-out: Percent growth inhibition
Procedure: as §1

A549/ATCC = assay: as above; format: cell-based; details: Homo sapiens; A549/ATCC; single dose 10 µM; negative = lethal; read-out: Percent growth inhibition
Procedure: as §1

UACC-62 = assay: NCI cytotoxicity screen, Melanoma panel; format: cell-based, human; details: Homo sapiens, single dose 10 µM, negative = lethal, read-out: Percent growth inhibition
Procedure: as §1

LOX IMVI = assay: NCI cytotoxicity screen, Melanoma panel; format: cell-based, human; details: Homo sapiens, single dose 10 µM, negative = lethal, read-out: Percent growth inhibition
Procedure: as §1

M14 = assay: NCI cytotoxicity screen, Melanoma panel; format: cell-based, human; details: Homo sapiens, single dose 10 µM, negative = lethal, read-out: Percent growth inhibition
Procedure: as §1

A498 = assay: NCI cytotoxicity screen, Renal Cancer panel; format: cell-based; details: Homo sapiens, single dose 10 µM, negative = lethal, read-out: Percent growth inhibition
Procedure: as §1

c1csc(-c2cn3ccnc3c(-c3ccc4c(c3)ncn4C3CCCCC3)n2)c1 [Compound 22, 8-(1-cyclohexyl-1H-benzo[d]imidazol-5-yl)-6-(thiophen-2-yl)imidazo[1,2-a]pyrazine]
inhibition at 10 µM (SK-MEL-2): 13.1%
inhibition at 10 µM (SK-MEL-5): 1.16%
inhibition at 10 µM (UACC-257): < 1%
inhibition at 10 µM (MDA-MB-435): < 1%
inhibition at 10 µM (SK-MEL-28): < 1%
inhibition at 10 µM (MALME-3M): < 1%
inhibition at 10 µM (K-562): < 1%
inhibition at 10 µM (HL-60(TB)): 0.87%
inhibition at 10 µM (MOLT-4): 12.4%
inhibition at 10 µM (CCRF-CEM): < 1%
inhibition at 10 µM (RPMI-8226): < 1%
inhibition at 10 µM (SR): 15%
inhibition at 10 µM (HCT-116): < 1%
inhibition at 10 µM (HT29): < 1%
inhibition at 10 µM (HCT-15): 6.48%
inhibition at 10 µM (COLO 205): < 1%
inhibition at 10 µM (OVCAR-3): 0.91%
inhibition at 10 µM (ACHN): < 1%
inhibition at 10 µM (SN12C): < 1%
inhibition at 10 µM (CAKI-1): < 1%
inhibition at 10 µM (RXF 393): < 1%
inhibition at 10 µM (UO-31): 16.4%
inhibition at 10 µM (NCI-H226): < 1%
inhibition at 10 µM (NCI-H322M): 0.45%
inhibition at 10 µM (NCI-522): 14.6%
inhibition at 10 µM (NCI-H23): 5.56%
logP [1]: 1.37
inhibition at 10 µM (SNB-19): < 1%
inhibition at 10 µM (U251): < 1%
inhibition at 10 µM (SF-539): < 1%
inhibition at 10 µM (SNB-75): < 1%
inhibition at 10 µM (SF-268): 2.5%
inhibition at 10 µM (SF-295): < 1%
inhibition at 10 µM (DU-145): 3.63%
inhibition at 10 µM (PC-3): 7.16%
inhibition at 10 µM (EXVX): 3.54%
inhibition at 10 µM (HOP-92): < 1%
inhibition at 10 µM (NCI-H460): < 1%
inhibition at 10 µM (HOP-62): 0.44%
inhibition at 10 µM (A549/ATCC): 1.63%
inhibition at 10 µM (UACC-62): 0.23%
inhibition at 10 µM (LOX IMVI): 1.01%
inhibition at 10 µM (M14): < 1%

c1cn2cc(-c3ccc4c(c3)ncn4C3CCCCC3)nc(-c3ccc4c(c3)ncn4C3CCCCC3)c2n1 [Compound 30, 6,8-bis(1-cyclohexyl-1H-benzo[d]imidazol-5-yl)imidazo[1,2-a]pyrazine]
inhibition at 10 µM (SK-MEL-5): 20.5%
inhibition at 10 µM (UACC-257): 5.79%
inhibition at 10 µM (MDA-MB-435): < 1%
inhibition at 10 µM (SK-MEL-28): < 1%
inhibition at 10 µM (MALME-3M): 8.16%
inhibition at 10 µM (K-562): 47.2%
inhibition at 10 µM (HL-60(TB)): 32.9%
inhibition at 10 µM (MOLT-4): 43.6%
inhibition at 10 µM (CCRF-CEM): 35.1%
inhibition at 10 µM (RPMI-8226): 52.2%
inhibition at 10 µM (SR): 17.1%
inhibition at 10 µM (HCT-116): 15.9%
inhibition at 10 µM (HT29): 28.1%
inhibition at 10 µM (HCT-15): 26%
inhibition at 10 µM (COLO 205): < 1%
inhibition at 10 µM (OVCAR-3): < 1%
inhibition at 10 µM (ACHN): 4.08%
inhibition at 10 µM (SN12C): 13.9%
inhibition at 10 µM (CAKI-1): 9.21%
inhibition at 10 µM (A498): < 1%
inhibition at 10 µM (RXF 393): 4.3%
inhibition at 10 µM (UO-31): 26.8%
inhibition at 10 µM (NCI-H226): 13.1%
inhibition at 10 µM (NCI-H322M): < 1%
inhibition at 10 µM (NCI-522): 17.7%
inhibition at 10 µM (NCI-H23): 4.61%
logP [1]: 2.16
inhibition at 10 µM (SNB-19): 5.02%
inhibition at 10 µM (U251): 29.7%
inhibition at 10 µM (SF-539): 25.4%
inhibition at 10 µM (SNB-75): 6.25%
inhibition at 10 µM (SF-268): 4.85%
inhibition at 10 µM (SF-295): 10.4%
inhibition at 10 µM (DU-145): 6.22%
inhibition at 10 µM (PC-3): 27.9%
inhibition at 10 µM (EXVX): 9.56%
inhibition at 10 µM (NCI-H460): 1.35%
inhibition at 10 µM (HOP-62): 20.8%
inhibition at 10 µM (A549/ATCC): 4.93%
inhibition at 10 µM (UACC-62): 12.4%
inhibition at 10 µM (LOX IMVI): 11.7%
inhibition at 10 µM (M14): < 1%

— article PMC7162861, “Synthesis, cytotoxicity, pharmacokinetic profile, binding with DNA and BSA of new imidazo[1,2-a]pyrazine-benzo[d]imidazol-5-yl hybrids” (Scientific Reports, 2020)
